Data set [1] can be described thus: Inhibition of S-nitrosoglutathione reductase expressed in Escherichia coli after 3 mins by UV/Vis spectrophotometry.
For the next data set, the target named is T1, CYP1A2 (Homo sapiens, UniProt P05177).
T1 sequence (P05177 whole entry): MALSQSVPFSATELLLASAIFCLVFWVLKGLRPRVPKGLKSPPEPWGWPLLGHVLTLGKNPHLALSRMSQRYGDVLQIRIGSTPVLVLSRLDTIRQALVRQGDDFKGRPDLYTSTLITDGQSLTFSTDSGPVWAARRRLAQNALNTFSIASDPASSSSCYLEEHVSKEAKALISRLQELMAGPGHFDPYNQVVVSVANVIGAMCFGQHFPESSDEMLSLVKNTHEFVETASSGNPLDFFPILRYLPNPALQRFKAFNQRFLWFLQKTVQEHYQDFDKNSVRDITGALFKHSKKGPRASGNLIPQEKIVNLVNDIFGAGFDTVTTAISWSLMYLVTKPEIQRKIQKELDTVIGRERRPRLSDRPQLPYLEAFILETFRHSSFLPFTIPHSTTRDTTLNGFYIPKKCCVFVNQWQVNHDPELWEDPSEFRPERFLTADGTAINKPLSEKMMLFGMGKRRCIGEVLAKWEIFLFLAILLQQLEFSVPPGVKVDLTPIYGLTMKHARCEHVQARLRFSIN
Kind of data set: Inhibition of CYP1A2 at 10 uM. It is filed as ADME.

The target in another data set is CYP2C9 (Homo sapiens, UniProt P11712). Briefly: Inhibition of CYP2C9 at 10 uM. It is filed as ADME.
For a further data set, the target named is CYP2C19 (Homo sapiens, UniProt P33261). Kind of data set: Inhibition of CYP2C19 at 10 uM. In kind it is ADME.
Another data set has as its target CYP2D6 (Homo sapiens, UniProt P10635). Kind of data set: Inhibition of CYP2D6 at 10 uM. It is filed as ADME.
The target in another data set is CYP3A4 (Homo sapiens, UniProt P08684). Briefly: Inhibition of CYP3A4 at 10 uM. It is filed as ADME.
In data set [2] the target is Mu-type opioid receptor (Homo sapiens) (UniProt P35372). Kind of data set: Binding affinity to human recombinant mu opioid receptor at 10 uM by radioligand displacement assay. (Displacement assays read how much labelled ligand stays bound in the presence of the test substance.)
Another data set addresses Cytochrome P450 2C19 (Homo sapiens, UniProt P33261). Kind of data set: Inhibition of CYP2C19. It is filed as ADME.
The species named for another data set is Homo sapiens. Briefly: Binding affinity to human recombinant delta2 opiate receptor by radioligand displacement assay.

Molecules are shown by their SMILES. Active and inactive are the calls of the source. The calls are words filed in the database; no cut-off is given here.

Sequence of CYP3A4 (P08684 whole entry): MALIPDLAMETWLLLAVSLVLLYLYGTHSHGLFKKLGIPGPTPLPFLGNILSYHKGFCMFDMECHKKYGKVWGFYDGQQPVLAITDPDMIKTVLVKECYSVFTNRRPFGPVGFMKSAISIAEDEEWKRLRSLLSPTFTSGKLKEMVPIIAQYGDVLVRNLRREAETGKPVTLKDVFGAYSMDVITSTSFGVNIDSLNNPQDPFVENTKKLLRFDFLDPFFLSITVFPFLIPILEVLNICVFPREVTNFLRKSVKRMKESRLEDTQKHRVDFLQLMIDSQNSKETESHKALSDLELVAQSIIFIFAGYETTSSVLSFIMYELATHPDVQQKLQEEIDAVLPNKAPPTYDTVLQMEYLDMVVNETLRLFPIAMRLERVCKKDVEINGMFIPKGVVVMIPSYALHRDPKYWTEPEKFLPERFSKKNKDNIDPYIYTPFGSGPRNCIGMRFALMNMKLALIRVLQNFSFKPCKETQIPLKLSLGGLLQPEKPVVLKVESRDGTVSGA
Sequence of CYP2C19 (P33261 whole entry): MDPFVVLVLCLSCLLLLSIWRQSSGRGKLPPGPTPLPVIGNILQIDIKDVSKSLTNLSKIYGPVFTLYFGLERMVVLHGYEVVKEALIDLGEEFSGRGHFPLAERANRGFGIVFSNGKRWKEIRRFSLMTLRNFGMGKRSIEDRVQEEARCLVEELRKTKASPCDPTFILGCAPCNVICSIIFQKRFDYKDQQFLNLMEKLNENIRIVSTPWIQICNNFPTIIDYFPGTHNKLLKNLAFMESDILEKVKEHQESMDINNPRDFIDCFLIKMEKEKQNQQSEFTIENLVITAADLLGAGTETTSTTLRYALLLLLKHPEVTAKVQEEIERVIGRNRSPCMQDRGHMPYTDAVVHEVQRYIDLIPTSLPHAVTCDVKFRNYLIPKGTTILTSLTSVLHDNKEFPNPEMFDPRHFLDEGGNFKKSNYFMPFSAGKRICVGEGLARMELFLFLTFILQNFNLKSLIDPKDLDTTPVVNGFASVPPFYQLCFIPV
Sequence of CYP2D6 (P10635 whole entry): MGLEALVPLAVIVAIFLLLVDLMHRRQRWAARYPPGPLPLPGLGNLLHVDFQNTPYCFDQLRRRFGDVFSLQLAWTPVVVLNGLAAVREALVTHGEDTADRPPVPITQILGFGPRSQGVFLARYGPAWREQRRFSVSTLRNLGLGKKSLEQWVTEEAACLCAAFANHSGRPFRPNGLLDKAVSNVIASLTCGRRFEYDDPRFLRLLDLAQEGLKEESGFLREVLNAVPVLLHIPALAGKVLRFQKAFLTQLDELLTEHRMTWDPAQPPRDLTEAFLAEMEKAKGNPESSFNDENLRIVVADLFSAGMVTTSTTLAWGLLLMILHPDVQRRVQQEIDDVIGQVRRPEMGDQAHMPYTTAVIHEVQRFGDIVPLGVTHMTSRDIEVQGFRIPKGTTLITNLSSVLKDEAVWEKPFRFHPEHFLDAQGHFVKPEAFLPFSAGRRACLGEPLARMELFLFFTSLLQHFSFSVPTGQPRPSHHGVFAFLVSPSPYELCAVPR
Sequence of CYP2C9 (P11712 whole entry): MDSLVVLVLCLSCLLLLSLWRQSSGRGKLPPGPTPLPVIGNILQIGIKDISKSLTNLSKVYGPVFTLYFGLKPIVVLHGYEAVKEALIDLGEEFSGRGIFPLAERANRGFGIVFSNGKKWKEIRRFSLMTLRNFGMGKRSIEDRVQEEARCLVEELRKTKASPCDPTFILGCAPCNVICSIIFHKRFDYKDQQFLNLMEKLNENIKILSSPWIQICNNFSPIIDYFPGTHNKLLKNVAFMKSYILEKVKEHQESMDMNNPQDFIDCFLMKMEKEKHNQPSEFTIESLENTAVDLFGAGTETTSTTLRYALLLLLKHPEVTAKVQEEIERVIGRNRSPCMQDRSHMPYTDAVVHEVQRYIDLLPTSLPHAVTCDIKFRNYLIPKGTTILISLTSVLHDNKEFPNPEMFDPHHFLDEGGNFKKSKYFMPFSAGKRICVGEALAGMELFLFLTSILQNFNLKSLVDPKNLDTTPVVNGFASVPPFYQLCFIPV
Sequence of Cytochrome P450 2C19 (P33261 whole entry): as the sequence (P33261 whole entry) above
Sequence of Mu-type opioid receptor (Homo sapiens) (P35372 whole entry): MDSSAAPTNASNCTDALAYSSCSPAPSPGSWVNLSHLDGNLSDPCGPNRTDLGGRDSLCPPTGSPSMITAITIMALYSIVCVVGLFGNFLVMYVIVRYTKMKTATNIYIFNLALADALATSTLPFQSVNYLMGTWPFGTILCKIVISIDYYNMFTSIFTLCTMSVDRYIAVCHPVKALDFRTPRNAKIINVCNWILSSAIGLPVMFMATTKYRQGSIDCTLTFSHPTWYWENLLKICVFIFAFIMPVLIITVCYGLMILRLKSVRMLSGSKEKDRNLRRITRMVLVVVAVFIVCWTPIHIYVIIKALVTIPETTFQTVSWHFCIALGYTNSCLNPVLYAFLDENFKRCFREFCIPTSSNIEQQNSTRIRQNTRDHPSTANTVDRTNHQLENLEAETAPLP

As a reminder, the IC50 is the concentration that inhibits the measured activity by half. Turning to `Cc1cc(C(N)=O)ccc1-n1c(CCC(=O)O)ccc1-c1cc(-n2ccnc2)cs1`, the IC50 in data set [1] (read-out: IC50) came out at 0.026 µM.
Turning to `Cc1cc(C(N)=O)ccc1-n1c(CCC(=O)O)ccc1-c1ccc(N2CCCCC2)cc1`, the IC50 in data set [1] (read-out: IC50) worked out at 8.78 µM.
The term inhibition denotes the change of the read-out against control, counted positive when it falls. Regarding `Cc1cc(C(N)=O)ccc1-n1c(CCC(=O)O)ccc1-c1ccc(-n2ccnc2C)s1`, the inhibition at 10 µM on CYP1A2 is -8%; against CYP2C9, 15%; at CYP2C19, 25%; on CYP2D6, 10%; against CYP3A4, 27%.
Consider `Cc1cc(C(N)=O)ccc1-n1c(CCC(=O)O)ccc1-c1ccc(N2CCOCC2)cc1`, for which the IC50 in data set [1] (read-out: IC50) came out at 8.17 µM.
On the same count and under the same terms, to `Cc1cc(C(N)=O)ccc1-n1c(CCC(=O)O)ccc1-c1ccc(-c2ccncc2)cc1` belongs 9.8 µM.
Same read-out and setting: the figure for `Cc1cc(C(N)=O)ccc1-n1c(CCC(=O)O)ccc1-c1ccc(-c2ccc(=O)[nH]c2)cc1` is 19 µM; for `Cc1cc(C(N)=O)ccc1-n1c(CCC(=O)O)ccc1-c1ccc(-n2ccnn2)cc1` it is 13.3 µM.
On the same count and under the same terms, to `Cc1cc(C(N)=O)ccc1-n1c(CCC(=O)O)ccc1-c1ccc(-n2cnnc2)cc1` belongs 1.48 µM.
As to `CCc1nccn1-c1ccc(-c2ccc(CCC(=O)O)n2-c2ccc(C(N)=O)cc2C)cc1`, the concentration for half-maximal inhibition (IC50) in data set [1] (read-out: IC50) worked out at 0.13 µM. For the same compound, the inhibition at 10 µM came to 6% against CYP1A2; 15% at CYP2C9; 25% against CYP2C19; 20% against CYP2D6; 27% at CYP3A4.
For `Cc1cc(C(N)=O)ccc1-n1c(CCC(=O)O)ccc1-c1ccc(-c2cccnc2)cc1`, the half-inhibitory concentration (IC50) in [1] (read-out: IC50) came to 23.9 µM.
Consider `Cc1cc(C(N)=O)ccc1-n1c(CCC(=O)O)ccc1-c1cc(-n2ccnc2C)cs1`, for which the inhibition at 10 µM on CYP1A2 is -11%; on CYP2C9 it was 13%; at CYP2C19, 11%; on CYP2D6 it was 12%; against CYP3A4 it was 18%. For the same compound, in data set [2], the inhibition was 69%.
Turning to `Cc1cc(C(N)=O)ccc1-n1c(CCC(=O)O)ccc1-c1ccc(-n2ccnc2C(F)(F)F)cc1`, the half-inhibitory concentration (IC50) entry in data set [1] was “Not Active”.
Consider `Cc1cc(C(N)=O)ccc1-n1c(CCC(=O)O)ccc1-c1ccc(-n2cccn2)cc1`, for which the concentration for half-maximal inhibition (IC50) in data set [1] (read-out: IC50) was found to be 4.74 µM.
On the same count and under the same terms, to `Cc1cc(C(N)=O)ccc1-n1c(CCC(=O)O)ccc1-c1ccc(-c2cncs2)cc1` belongs 0.76 µM; to `Cc1cc(C(N)=O)ccc1-n1c(CCC(=O)O)ccc1-c1ccc(N2CCOC2=O)cc1`, 53.5 µM.
`Cc1cc(C(N)=O)ccc1-n1c(CCC(=O)O)ccc1-c1ccc(-n2ccnc2C2CC2)cc1`: the IC50 in data set [1] (read-out: IC50) is 6.96 µM.
Turning to `CCc1nccn1-c1ccc(-c2ccc(CCC(=O)O)n2-c2ccc(C(N)=O)cc2C)s1`, in data set [1] (read-out: IC50), the IC50 was 0.048 µM.
Turning to `Cc1cn(-c2ccc(-c3ccc(CCC(=O)O)n3-c3ccc(C(N)=O)cc3C)cc2)cn1`, the IC50 in data set [1] (read-out: IC50) came to 6.25 µM.
Same read-out and setting: to `Cc1cc(C(N)=O)ccc1-n1c(CCC(=O)O)ccc1-c1cnc(-n2ccnc2)s1` belongs 1.57 µM; to `Cc1cc(C(N)=O)ccc1-n1c(CCC(=O)O)ccc1-c1ccc(-n2ccnc2)o1`, 0.9 µM; to `Cc1cc(C(N)=O)ccc1-n1c(CCC(=O)O)ccc1-c1ccc(-n2cccc2)cc1`, 10.2 µM.
Same read-out and setting: the figure for `Cc1cc(C(N)=O)ccc1-n1c(CCC(=O)O)ccc1-c1ccc(-c2ccsc2)cc1` is 29.3 µM.
On the same count and under the same terms, to `Cc1cc(C(N)=O)ccc1-n1c(CCC(=O)O)ccc1-c1ccc(N2CCNC2=O)cc1` belongs 50.6 µM; to `Cc1cc(C(N)=O)ccc1-n1c(CCC(=O)O)ccc1-c1cnc(-n2ccnc2)nc1`, 0.15 µM; to `Cc1cc(C(N)=O)ccc1-n1c(CCC(=O)O)ccc1-c1ccc(-c2cn[nH]c2)cc1`, 2.66 µM.
Turning to `Cc1cc(C(N)=O)ccc1-n1c(CCC(=O)O)ccc1-c1ccc(-c2ccoc2)cc1`, in data set [1] (read-out: IC50), the 50% inhibitory concentration (IC50) amounted to 0.51 µM.
On the same count and under the same terms, to `Cc1cc(C(N)=O)ccc1-n1c(CCC(=O)O)ccc1-c1ccc(-n2ccnc2CO)cc1` belongs 2.31 µM; to `Cc1cc(C(N)=O)ccc1-n1c(CCC(=O)O)ccc1-c1ccc(-c2ccco2)cc1`, 6.52 µM.
As for `Cc1cc(C(N)=O)ccc1-n1c(CCC(=O)O)ccc1-c1ccc(-n2ccnc2C(C)C)cc1`, the half-inhibitory concentration (IC50) result in data set [1] is “Not Active”.
In the case of `Cc1cc(C(N)=O)ccc1-n1c(CCC(=O)O)ccc1-c1ccc(-c2ccnn2C)cc1`, the IC50 in data set [1] (read-out: IC50) worked out at 0.68 µM.
For the compound `Cc1cc(C(N)=O)ccc1-n1c(CCC(=O)O)ccc1-c1ccc(-n2ccnc2)cn1`, the IC50 in data set [1] (read-out: IC50) is 0.36 µM.
Turning to `Cc1cc(C(N)=O)ccc1-n1c(CCC(=O)O)ccc1-c1ccc(-n2cnnn2)cc1`, the IC50 in [1] (read-out: IC50) came out at 5.19 µM.
On the same count and under the same terms, the figure for `Cc1cc(C(N)=O)ccc1-n1c(CCC(=O)O)ccc1-c1csc(-n2ccnc2C)c1` is 0.048 µM; for `Cc1cc(C(N)=O)ccc1-n1c(CCC(=O)O)ccc1-c1ccc(N2CCCC2)cc1` it is 11.8 µM.
Still for that read-out and setting: to `Cc1cc(C(N)=O)ccc1-n1c(CCC(=O)O)ccc1-c1ccc(-c2cnn(C)c2)cc1` belongs 5.14 µM.
Consider `Cc1cc(C(N)=O)ccc1-n1c(CCC(=O)O)ccc1-c1ccc(-n2ccnc2C)cc1`, for which the IC50 in data set [1] (read-out: IC50) came to 0.075 µM. The inhibition at 10 µM at CYP1A2 worked out at 11%; against CYP2C9 it was 20%; against CYP2C19 it was 55%; against CYP2D6 it was 11%; against CYP3A4, 31%.
Consider `Cc1cc(C(N)=O)ccc1-n1c(CCC(=O)O)ccc1-c1ccc(-n2ccnc2)nc1`, for which, in [1] (read-out: IC50), the half-maximal inhibitory concentration (IC50) was 2.3 µM.
`Cc1cc(C(N)=O)ccc1-n1c(CCC(=O)O)ccc1-c1ccc(-n2ccnc2)s1`: the inhibition at 10 µM is 77% against CYP1A2; 92% against CYP2C9; 83% at CYP2C19; 96% against CYP2D6; 91% against CYP3A4.
`Cc1cc(C(N)=O)ccc1-n1c(CCC(=O)O)ccc1-c1ccc(N2CCNCC2)cc1`: the half-inhibitory concentration (IC50) in data set [1] (read-out: IC50) was determined as 43.9 µM.
For `Cc1cc(C(N)=O)ccc1-n1c(CCC(=O)O)ccc1-c1ccc(-n2ccnc2)cc1` [N6022], the half-inhibitory concentration (IC50) in data set [1] (read-out: IC50) was determined as 0.02 µM; at Cytochrome P450 2C19, 0.77 µM. For the same compound, the result in the data set listed under Homo sapiens was inactive.
With `Cc1cc(C(N)=O)ccc1-n1c(CCC(=O)O)ccc1-c1ccc(-c2nnn[nH]2)cc1`, the IC50 in data set [1] (read-out: IC50) stood at 1.75 µM.
Still for that read-out and setting: the figure for `Cc1cc(C(N)=O)ccc1-n1c(CCC(=O)O)ccc1-c1ccc(-c2ccccc2)cc1` is 6.16 µM.

The record behind these values is ChEMBL document CHEMBL1833839, “Discovery of potent and novel S-nitrosoglutathione reductase inhibitors devoid of cytochrome P450 activities” (Bioorg Med Chem Lett, 2011).
